Assay type in all cases: functional
Test [1] concerns Streptococcus pneumoniae. The test can be described thus: Antibacterial activity against Streptococcus pneumoniae 994 expressing mef gene by NCCLS method.
Test [2] deals with Moraxella catarrhalis. The test can be described thus: Antibacterial activity against Moraxella catarrhalis 8176 by NCCLS method.
Test [3] relates to Streptococcus pyogenes. The test can be described thus: Antibacterial activity against Streptococcus pyogenes 19615 by NCCLS method.
The subject of test [4] is Streptococcus pneumoniae. The test can be described thus: Antibacterial activity against Streptococcus pneumoniae 6303 by NCCLS method.
Test [5] relates to Streptococcus pneumoniae. Put plainly: Antibacterial activity against Streptococcus pneumoniae 49619 by NCCLS method.
The subject of test [6] is Haemophilus influenzae. The test can be described thus: Antibacterial activity against Haemophilus influenzae 38 by NCCLS method.
In test [7] the test system is Streptococcus pneumoniae. The test can be described thus: Antibacterial activity against Streptococcus pneumoniae 3579 expressing erm gene by NCCLS method.
The subject of test [8] is Streptococcus pneumoniae. Put plainly: Antibacterial activity against telethromycin-resistant Streptococcus pneumoniae 5099 expressing erm gene by NCCLS method.
For test [9], the system named is Streptococcus pneumoniae. Put plainly: Antibacterial activity against telethromycin-resistant Streptococcus pneumoniae B739 expressing erm gene by NCCLS method.
The subject of test [10] is Streptococcus pneumoniae. Put plainly: Antibacterial activity against telethromycin-resistant Streptococcus pneumoniae 3390 expressing erm gene by NCCLS method.
The test system of test [11] is Streptococcus pneumoniae. The test can be described thus: Antibacterial activity against telethromycin-resistant Streptococcus pneumoniae 3488 expressing erm gene by NCCLS method.
For test [12], the system named is Streptococcus pneumoniae. Put plainly: Antibacterial activity against telethromycin-resistant Streptococcus pneumoniae 217 expressing erm gene by NCCLS method.
Test [13] deals with Streptococcus pneumoniae. The test can be described thus: Antibacterial activity against telethromycin-resistant Streptococcus pneumoniae 162 expressing erm gene by NCCLS method.
The test system of test [14] is Streptococcus pneumoniae. The test can be described thus: Antibacterial activity against telethromycin-resistant Streptococcus pneumoniae 3271 expressing erm gene by NCCLS method.
Test [15] deals with Streptococcus pneumoniae. The test can be described thus: Antibacterial activity against telethromycin-resistant Streptococcus pneumoniae 3489 expressing erm gene by NCCLS method.
The subject of test [16] is Streptococcus pneumoniae. The test can be described thus: Antibacterial activity against telethromycin-resistant Streptococcus pneumoniae AB14 expressing erm gene by NCCLS method.
In test [17] the test system is Streptococcus pneumoniae. The test can be described thus: Antibacterial activity against telethromycin-resistant Streptococcus pneumoniae 2840 expressing erm gene by NCCLS method.
In test [18] the test system is Streptococcus pneumoniae. The test can be described thus: Antibacterial activity against telethromycin-resistant Streptococcus pneumoniae 757 expressing erm gene by NCCLS method.
For test [19], the system named is Streptococcus pneumoniae. The test can be described thus: Antibacterial activity against telethromycin-resistant Streptococcus pneumoniae 5051 expressing erm gene by NCCLS method.

≈ marks a conversion by molar mass, not a printed value.

In the case of `C=CCN(C)[C@H]1C[C@@H](C)O[C@@H](O[C@@H]2[C@@H](C)[C@H](OC(=O)Cc3ccccn3)[C@@H](C)C(=O)O[C@H](CC)[C@@]3(C)OC(=O)N(CCCCn4cnc5cccnc54)[C@@H]3[C@@H](C)C(=O)[C@H](C)C[C@@]2(C)OC)[C@@H]1O`, the MIC is 0.5 µg/mL (≈ 0.536 µM) in [1]; 0.125 µg/mL (≈ 0.134 µM) in [2]; 0.125 µg/mL (≈ 0.134 µM) in test [3]; 0.125 µg/mL (≈ 0.134 µM) in [4]; 0.06 µg/mL (≈ 0.0643 µM) in test [5]; less than 0.06 µg/mL in test [6]. Besides, the MIC in test [7] stood at 0.5 µg/mL (≈ 0.536 µM).

Consider `C=CCN(C)[C@H]1C[C@@H](C)O[C@@H](O[C@@H]2[C@@H](C)[C@H](OC(=O)Cc3cccnc3)[C@@H](C)C(=O)O[C@H](CC)[C@@]3(C)OC(=O)N(CCCCn4cnc(-c5cccnc5)c4)[C@@H]3[C@@H](C)C(=O)[C@H](C)C[C@@]2(C)OC)[C@@H]1O`, for which the MIC in [1] amounted to 0.125 µg/mL (≈ 0.13 µM); in test [2], 0.25 µg/mL (≈ 0.261 µM); in test [3], 0.06 µg/mL (≈ 0.0626 µM); in test [4], 0.03 µg/mL (≈ 0.0313 µM); in test [5] it was 0.03 µg/mL (≈ 0.0313 µM); in test [6], 0.125 µg/mL (≈ 0.13 µM). This compound had an MIC in test [7] of 1 µg/mL (≈ 1.04 µM).

Turning to `C=CCN(C)[C@H]1C[C@@H](C)O[C@@H](O[C@@H]2[C@@H](C)[C@H](OC(=O)Cc3cccnc3)[C@@H](C)C(=O)O[C@H](CC)[C@@]3(C)OC(=O)N(CCCCn4ccc5cccnc54)[C@@H]3[C@@H](C)C(=O)[C@H](C)C[C@@]2(C)OC)[C@@H]1O`, the MIC in test [1] is 0.25 µg/mL (≈ 0.268 µM); in test [2] it was 0.06 µg/mL (≈ 0.0644 µM); in test [3], 0.03 µg/mL (≈ 0.0322 µM); in test [4], 0.06 µg/mL (≈ 0.0644 µM); in [5] it was 0.06 µg/mL (≈ 0.0644 µM); in test [6] it was less than 0.03 µg/mL. The same compound registered an MIC in [7] of 8 µg/mL (≈ 8.58 µM).

In the case of `CC[C@H]1OC(=O)[C@H](C)C(=O)[C@H](C)[C@@H](O[C@@H]2O[C@H](C)C[C@H](N(C)C)[C@H]2O)[C@](C)(OC)C[C@@H](C)C(=O)[C@H](C)[C@H]2N(CCCCn3cnc(-c4cccnc4)c3)C(=O)O[C@]12C` [TELITHROMYCIN], the MIC in [8] was found to be 8 µg/mL (≈ 9.85 µM); in test [9], 64 µg/mL (≈ 78.8 µM); in test [10], 8 µg/mL (≈ 9.85 µM); in test [11], 8 µg/mL (≈ 9.85 µM); in [12], 4 µg/mL (≈ 4.93 µM); in test [13] it was 64 µg/mL (≈ 78.8 µM). Moreover, the MIC in test [14] came to 64 µg/mL (≈ 78.8 µM); in [15], 64 µg/mL (≈ 78.8 µM); in [1], 0.25 µg/mL (≈ 0.308 µM); in test [2], 0.25 µg/mL (≈ 0.308 µM); in test [3], 0.03 µg/mL (≈ 0.0369 µM); in [4], 0.03 µg/mL (≈ 0.0369 µM). The MIC is 0.06 µg/mL (≈ 0.0739 µM) in test [5]; 8 µg/mL (≈ 9.85 µM) in test [16]; 1 µg/mL (≈ 1.23 µM) in [6]; 0.25 µg/mL (≈ 0.308 µM) in test [7]; 64 µg/mL (≈ 78.8 µM) in [17]; 32 µg/mL (≈ 39.4 µM) in test [18]. The compound also displayed an MIC in test [19] of 4 µg/mL (≈ 4.93 µM).

Turning to `CC[C@H]1OC(=O)[C@H](C)[C@@H](OC(=O)Cc2ccccn2)[C@H](C)[C@@H](O[C@@H]2O[C@H](C)C[C@H](N(C)CC)[C@H]2O)[C@](C)(OC)C[C@@H](C)C(=O)[C@H](C)[C@H]2N(CCCCn3cnc(-c4ccc(N)nc4)c3)C(=O)O[C@]12C`, the MIC in test [1] is 0.125 µg/mL (≈ 0.13 µM); in test [2], 0.25 µg/mL (≈ 0.26 µM); in test [3], 0.06 µg/mL (≈ 0.0624 µM); in test [4] it was 0.06 µg/mL (≈ 0.0624 µM); in [5], 0.06 µg/mL (≈ 0.0624 µM); in test [6], 0.125 µg/mL (≈ 0.13 µM). In test [7], this compound yielded an MIC of 0.25 µg/mL (≈ 0.26 µM).

`C=CCN(C)[C@H]1C[C@@H](C)O[C@@H](O[C@@H]2[C@@H](C)[C@H](OC(=O)Cc3ccccn3)[C@@H](C)C(=O)O[C@H](CC)[C@@]3(C)OC(=O)N(CCCCn4cnc(-c5cncnc5)c4)[C@@H]3[C@@H](C)C(=O)[C@H](C)C[C@@]2(C)OC)[C@@H]1O`: the MIC in test [1] was 0.06 µg/mL (≈ 0.0625 µM); in [2] it was 0.125 µg/mL (≈ 0.13 µM); in test [3], 0.03 µg/mL (≈ 0.0312 µM); in [4], 0.03 µg/mL (≈ 0.0312 µM); in test [5], 0.03 µg/mL (≈ 0.0312 µM); in test [6], less than 0.06 µg/mL. In test [7], this compound gave an MIC of 0.25 µg/mL (≈ 0.26 µM).

With `C=CCN(C)[C@H]1C[C@@H](C)O[C@@H](O[C@@H]2[C@@H](C)[C@H](OC(=O)Cc3ccccn3)[C@@H](C)C(=O)O[C@H](CC)[C@@]3(C)OC(=O)N(CCCCn4cnc(-c5cccc(N)c5)c4)[C@@H]3[C@@H](C)C(=O)[C@H](C)C[C@@]2(C)OC)[C@@H]1O`, the MIC was 0.06 µg/mL (≈ 0.0617 µM) in [1]; 0.125 µg/mL (≈ 0.128 µM) in test [2]; 0.03 µg/mL (≈ 0.0308 µM) in test [3]; 0.03 µg/mL (≈ 0.0308 µM) in [4]; 0.03 µg/mL (≈ 0.0308 µM) in test [5]; less than 0.06 µg/mL in test [6]. The same compound returned an MIC in [7] of 0.125 µg/mL (≈ 0.128 µM).

The values above are taken from ChEMBL document CHEMBL1933046, “Synthesis and antibacterial activity of a novel series of acylides active against community acquired respiratory pathogens” (2012).
